Patent publication US5604236A, “Beta-carboline thromboxane synthase inhibitors” (Eli Lilly and Company, priority 1995, dated 1997)
pIC50: −log10 of the molar value. Values belong to the compound of their own block, whether it stands above or below them.

Experiments:
[1] = system: 6-keto-PGF1a (prostacyclin generation); conditions: stated as well known; result in words; cited from earlier work
TXB2 = experiment: Serum TXB2 levels ex vivo after oral or i.v. administration to rats; format: in vivo; conditions: rat
Method: The blood was allowed to clot in glass tubes for 1 hour at 37° C. Serum was collected after sedimentation of the clot by centrifugation at 2000×g for 15 minutes in a Beckman table top centrifuge. The levels of TXB2 were measured in the serum by radioimmunoassay.

[2] = system: 6-keto-PGF1a (prostacyclin generation); experiment: Serum 6-keto-PGF1a (prostacyclin generation) by radioimmunoassay in human whole blood; format: cell-based; conditions: for Serum 6-keto-PGF1a: vehicle 2.43
Method: (§1) The test compounds were dissolved in dimethylsulfoxide. The compound solutions were incubated with fresh whole human blood, that had been anticoagulated with 0.38% trisodium citrate, for 30 minutes at 37° C. After 30 minutes, 0.025 ml of 0.5M calcium chloride solution was added to each 1 ml of blood and further incubated for one hour at 37° C. Serum was prepared by centrifugation of the blood at 2000×g for 15 minutes in a Beckman table top centrifuge. Serum TXB2 and 6-keto-PGF1a, the stable metabolites of and markers of synthesis of TXA2 and prostacyclin respectively, were measured by radioimmunoassay by commonly used test methods (see, Refs.,1 & 2 below). Results from the radioimmunoassay of TXB2 were used to calculate the IC50 (concentration of compound required to reduce thromboxane generation to 50% of that obtained with vehicle alone).
Data determined from the radioimmunoassay of 6-keto-PGF1a (reflecting prostacyclin generation) allowed a determination of the specificity of the compound of example 1 for the inhibition of thromboxane synthase as indicated by increased levels of 6-keto-PGF1a relative to the less specific inhibition of cyclooxygenase by aspirin.

thromboxane synthase = molecular target: T1, thromboxane synthase (Homo sapiens, UniProt P24557); experiment: Thromboxane Synthase Inhibition (TSI) Test, serum TXB2 by radioimmunoassay in human whole blood; format: cell-based; conditions: fresh whole human blood, 30 min at 37° C., then CaCl2 1 hour; TXB2 RIA; read-out: IC50 (concentration of compound required to reduce thromboxane generation to 50% of that obtained with vehicle alone)
T1 construct: incubated with fresh whole human blood, that had been anticoagulated with 0.38% trisodium citrate; from tissue; host or cells: fresh whole human blood (citrated, recalcified to clot)
T1 sequence (P24557 1-533): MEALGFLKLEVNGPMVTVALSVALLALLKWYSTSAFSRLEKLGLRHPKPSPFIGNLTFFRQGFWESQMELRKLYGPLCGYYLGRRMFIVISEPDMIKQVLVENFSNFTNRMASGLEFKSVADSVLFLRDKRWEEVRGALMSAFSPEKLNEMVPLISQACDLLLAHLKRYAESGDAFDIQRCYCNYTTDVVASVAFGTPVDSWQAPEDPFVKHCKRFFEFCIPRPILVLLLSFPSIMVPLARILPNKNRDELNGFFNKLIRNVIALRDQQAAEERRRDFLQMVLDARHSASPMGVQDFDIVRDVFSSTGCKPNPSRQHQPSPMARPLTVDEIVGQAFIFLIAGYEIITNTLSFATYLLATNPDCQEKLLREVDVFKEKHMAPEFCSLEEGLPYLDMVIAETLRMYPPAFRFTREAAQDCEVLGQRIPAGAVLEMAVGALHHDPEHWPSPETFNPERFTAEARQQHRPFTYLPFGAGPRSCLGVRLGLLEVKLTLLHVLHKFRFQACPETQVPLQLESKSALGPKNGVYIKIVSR
Method: as §1, with “The ability of the compounds of the present invention to be an effective thromboxane synthase inhibitors were evaluated in the following Thromboxane Synthase Inhibition (TSI) Assay with the results shown in Table 2 below: The test” for “The test”

Compound: CC(=O)Oc1ccccc1C(=O)O [Aspirin]
generation of 6-keto-PGF1a [1]: completely inhibit

Compound: O=C(O)CCCCCn1c2ccccc2c2ccncc21 [Example 1, 9H-Pyrido(3,4-β)indole-9-hexanoic acid]
Serum TXB2 (% control) (TXB2; i.v., 0.01 mg/kg, 15 minutes): 69 % control
Serum TXB2 (% control) (TXB2; i.v., 0.1 mg/kg, 15 minutes): 14 % control
Serum TXB2 (% control) (TXB2; i.v., 1 mg/kg, 15 minutes): 4 % control
availability by oral and i.v. routes (TXB2; inferred from decreased serum TXB2, result in words): availability of the compounds by both oral and i.v. routes
Serum TXB2 (% control) (TXB2; oral, 0.1 mg/kg, one hour): 54 % control
Serum TXB2 (% control) (TXB2; oral, 1 mg/kg, one hour): 16 % control
Serum TXB2 (% control) (TXB2; oral, 10 mg/kg, one hour): 2 % control
Serum TXB2 (% control) (TXB2; oral, 100 mg/kg, one hour): 1 % control
Serum 6-keto-PGF1a ([2]; 0.001 μM): 3.01 ng/mL
Serum 6-keto-PGF1a ([2]; 0.01 μM): 5.09 ng/mL
Serum 6-keto-PGF1a ([2]; 0.1 μM): 7.07 ng/mL
Serum 6-keto-PGF1a ([2]; 1 μM): 7.71 ng/mL
Serum 6-keto-PGF1a ([2]; 10 μM): 7.82 ng/mL
effect on human serum 6-keto-PGF1a levels ([2]; human serum, result in words): dose-dependent stimulatory effect
pIC50 (thromboxane synthase): 7.28

Compound: O=C(O)CCCn1c2ccccc2c2ccncc21 [Example 2, 9H-Pyrido (3,4-β)indole-9-butanoic acid]
pIC50 (thromboxane synthase): 4.72

Compound: O=C(O)CCCCn1c2ccccc2c2ccncc21 [Example 3, 9H-Pyrido (3,4-β)indole-9-pentanoic acid]
pIC50 (thromboxane synthase): 7.00

Compound: O=C(O)CCCCCCn1c2ccccc2c2ccncc21 [Example 4]
pIC50 (thromboxane synthase): 6.68

The next lines start with the values.

pIC50 (thromboxane synthase): 7.17
Compound: O=C(O)CCCCCn1c2ccc(Br)cc2c2ccncc21 [Example 5, 6-Bromo-9H-pyrido(3,4-β)indole-9-hexanoic acid]

pIC50 (thromboxane synthase): 7.51
Compound: Cc1ccc2c(c1)c1ccncc1n2CCCCCC(=O)O [Example 6, 6-Methyl-9H-pyrido(3,4-β)indole-9-hexanoic acid]

pIC50 (thromboxane synthase): 7.31
Compound: COc1ccc2c(c1)c1ccncc1n2CCCCCC(=O)O [Example 7, 6-Methoxy-9H-pyrido(3,4-β)indole-9-hexanoic acid]

pIC50 (thromboxane synthase): 7.04
Compound: O=C(O)CCCCCn1c2ccc([N+](=O)[O-])cc2c2ccncc21 [Example 8, 6-Nitro-9H-pyrido(3,4-β)indole-9-hexanoic acid]
